The values below come from US11572590B2, “Methods for evaluating tumor cell spheroids using 3D microfluidic cell culture device” (Dana-Farber Cancer Institute, Inc., priority 2017, dated 2023).

One experiment deals with MB49 allograft. The experiment is described as follows: MB49 allograft, Compound 1 and anti-PD-L1 combination in vivo. Particulars: Cmpd1 + αPD-L1. Set-up: species or system mouse.
In experiment [1] the target is off-target kinases (Homo sapiens, UniProt Q9UM73). The experiment is described as follows: SelectScreen Kinase Profiling, single point inhibition and IC50 for off-target kinases. Particulars: ALK, ZLYTE, ATP Km app. It counts as biochemical.
Chain of off-target kinases (Homo sapiens, UniProt Q9UM73) (Q9UM73 19-1620): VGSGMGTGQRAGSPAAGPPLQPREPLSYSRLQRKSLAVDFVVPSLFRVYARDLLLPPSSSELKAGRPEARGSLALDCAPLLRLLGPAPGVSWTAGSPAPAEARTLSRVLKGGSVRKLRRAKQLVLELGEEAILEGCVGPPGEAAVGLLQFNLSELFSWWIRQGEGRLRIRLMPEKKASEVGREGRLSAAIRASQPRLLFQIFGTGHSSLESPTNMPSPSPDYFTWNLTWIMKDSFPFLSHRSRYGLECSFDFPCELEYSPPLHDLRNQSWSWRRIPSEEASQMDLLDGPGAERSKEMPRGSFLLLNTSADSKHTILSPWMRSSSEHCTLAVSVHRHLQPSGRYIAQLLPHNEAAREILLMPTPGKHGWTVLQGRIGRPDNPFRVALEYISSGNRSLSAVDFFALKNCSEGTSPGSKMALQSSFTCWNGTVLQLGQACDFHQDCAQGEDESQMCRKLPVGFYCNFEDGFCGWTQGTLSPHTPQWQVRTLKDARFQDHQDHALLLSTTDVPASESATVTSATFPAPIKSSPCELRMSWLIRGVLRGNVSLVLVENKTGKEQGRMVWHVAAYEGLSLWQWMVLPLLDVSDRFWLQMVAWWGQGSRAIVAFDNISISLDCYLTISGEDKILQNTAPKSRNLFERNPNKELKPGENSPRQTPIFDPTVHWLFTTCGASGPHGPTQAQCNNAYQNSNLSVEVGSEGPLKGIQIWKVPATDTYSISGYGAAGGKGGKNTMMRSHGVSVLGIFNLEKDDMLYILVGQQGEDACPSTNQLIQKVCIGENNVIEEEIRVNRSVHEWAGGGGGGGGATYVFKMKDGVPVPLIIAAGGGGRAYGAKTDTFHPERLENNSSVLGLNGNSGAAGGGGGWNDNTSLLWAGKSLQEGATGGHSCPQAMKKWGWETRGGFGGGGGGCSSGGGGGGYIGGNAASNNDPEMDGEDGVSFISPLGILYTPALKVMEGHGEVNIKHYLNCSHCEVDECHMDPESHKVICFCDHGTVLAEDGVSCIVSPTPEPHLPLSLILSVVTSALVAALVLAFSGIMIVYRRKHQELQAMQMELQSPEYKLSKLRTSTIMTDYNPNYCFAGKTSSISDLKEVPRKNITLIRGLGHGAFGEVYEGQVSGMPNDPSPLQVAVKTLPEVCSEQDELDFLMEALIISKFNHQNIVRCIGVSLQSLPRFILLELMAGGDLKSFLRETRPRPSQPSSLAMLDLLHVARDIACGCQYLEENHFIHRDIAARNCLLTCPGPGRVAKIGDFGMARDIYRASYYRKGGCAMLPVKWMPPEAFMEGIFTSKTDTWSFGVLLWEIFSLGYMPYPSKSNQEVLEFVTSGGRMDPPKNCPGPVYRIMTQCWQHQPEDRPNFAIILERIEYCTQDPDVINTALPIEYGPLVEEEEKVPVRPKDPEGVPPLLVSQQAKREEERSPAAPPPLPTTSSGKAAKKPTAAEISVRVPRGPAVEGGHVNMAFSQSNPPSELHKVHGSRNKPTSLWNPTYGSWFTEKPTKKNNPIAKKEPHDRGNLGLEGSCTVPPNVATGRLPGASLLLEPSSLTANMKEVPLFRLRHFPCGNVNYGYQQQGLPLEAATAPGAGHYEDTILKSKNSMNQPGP
Experiment [2] deals with off-target kinases (Homo sapiens, UniProt P54764). The description is as above. The following applies: EPHA4, ZLYTE, ATP Km app. In kind it is biochemical.
Chain of off-target kinases (Homo sapiens, UniProt P54764) (P54764 20-986): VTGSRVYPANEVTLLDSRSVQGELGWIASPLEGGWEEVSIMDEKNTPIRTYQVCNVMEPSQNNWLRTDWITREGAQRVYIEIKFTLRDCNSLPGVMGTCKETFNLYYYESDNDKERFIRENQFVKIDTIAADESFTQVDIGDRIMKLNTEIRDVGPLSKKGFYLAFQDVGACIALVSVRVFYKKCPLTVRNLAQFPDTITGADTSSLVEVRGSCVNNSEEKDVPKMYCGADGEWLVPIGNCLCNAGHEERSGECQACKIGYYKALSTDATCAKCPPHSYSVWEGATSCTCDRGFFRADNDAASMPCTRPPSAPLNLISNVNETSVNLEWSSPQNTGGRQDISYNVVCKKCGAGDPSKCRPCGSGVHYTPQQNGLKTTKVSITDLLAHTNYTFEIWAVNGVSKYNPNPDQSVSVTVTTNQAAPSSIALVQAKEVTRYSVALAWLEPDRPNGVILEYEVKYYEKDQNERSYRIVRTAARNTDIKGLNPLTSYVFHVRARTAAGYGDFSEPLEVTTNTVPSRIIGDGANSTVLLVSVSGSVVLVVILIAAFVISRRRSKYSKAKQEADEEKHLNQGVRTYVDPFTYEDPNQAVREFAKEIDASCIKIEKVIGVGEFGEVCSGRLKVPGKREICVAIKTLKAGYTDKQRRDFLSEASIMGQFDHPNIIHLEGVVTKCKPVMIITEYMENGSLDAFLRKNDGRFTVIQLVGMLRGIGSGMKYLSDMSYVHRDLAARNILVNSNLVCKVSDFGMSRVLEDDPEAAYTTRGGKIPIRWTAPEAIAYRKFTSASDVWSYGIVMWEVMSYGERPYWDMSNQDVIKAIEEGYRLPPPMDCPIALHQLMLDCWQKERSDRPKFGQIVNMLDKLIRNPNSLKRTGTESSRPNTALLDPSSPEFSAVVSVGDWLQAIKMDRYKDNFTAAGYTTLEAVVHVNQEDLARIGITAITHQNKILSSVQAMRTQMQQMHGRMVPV
The target of experiment [3] is off-target kinases (Homo sapiens, UniProt Q9Y463). The experiment is described as above. In kind it is biochemical. Particulars: DYRK1B, ZLYTE, ATP Km app.
Chain of off-target kinases (Homo sapiens, UniProt Q9Y463) (Q9Y463 whole entry): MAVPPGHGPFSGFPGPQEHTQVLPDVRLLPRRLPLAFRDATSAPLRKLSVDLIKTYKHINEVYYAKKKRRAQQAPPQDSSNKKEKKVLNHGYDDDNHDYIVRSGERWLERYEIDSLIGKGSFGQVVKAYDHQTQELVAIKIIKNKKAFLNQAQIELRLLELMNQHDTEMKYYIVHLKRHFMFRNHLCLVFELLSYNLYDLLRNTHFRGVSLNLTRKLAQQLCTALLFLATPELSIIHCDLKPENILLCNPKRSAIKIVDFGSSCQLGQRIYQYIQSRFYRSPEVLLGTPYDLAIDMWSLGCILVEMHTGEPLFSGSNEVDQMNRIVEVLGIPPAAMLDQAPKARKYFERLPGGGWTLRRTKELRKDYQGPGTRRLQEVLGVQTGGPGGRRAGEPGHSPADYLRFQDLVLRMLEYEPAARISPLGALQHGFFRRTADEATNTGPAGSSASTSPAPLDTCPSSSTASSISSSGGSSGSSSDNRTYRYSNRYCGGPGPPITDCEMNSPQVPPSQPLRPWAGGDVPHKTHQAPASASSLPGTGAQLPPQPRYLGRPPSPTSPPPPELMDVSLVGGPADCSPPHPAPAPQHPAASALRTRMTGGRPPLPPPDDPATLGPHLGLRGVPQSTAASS
In experiment [4] the target is off-target kinases (Homo sapiens, UniProt P07949, V804M). The description is as above. In kind it is biochemical. The following applies: RET V804M, mutant y, LanthaScreen Binding. (In general: TR-FRET usually uses a lanthanide donor and a delayed reading to cut background.)
Chain of off-target kinases (Homo sapiens, UniProt P07949, V804M) (P07949 29-1114 V804M): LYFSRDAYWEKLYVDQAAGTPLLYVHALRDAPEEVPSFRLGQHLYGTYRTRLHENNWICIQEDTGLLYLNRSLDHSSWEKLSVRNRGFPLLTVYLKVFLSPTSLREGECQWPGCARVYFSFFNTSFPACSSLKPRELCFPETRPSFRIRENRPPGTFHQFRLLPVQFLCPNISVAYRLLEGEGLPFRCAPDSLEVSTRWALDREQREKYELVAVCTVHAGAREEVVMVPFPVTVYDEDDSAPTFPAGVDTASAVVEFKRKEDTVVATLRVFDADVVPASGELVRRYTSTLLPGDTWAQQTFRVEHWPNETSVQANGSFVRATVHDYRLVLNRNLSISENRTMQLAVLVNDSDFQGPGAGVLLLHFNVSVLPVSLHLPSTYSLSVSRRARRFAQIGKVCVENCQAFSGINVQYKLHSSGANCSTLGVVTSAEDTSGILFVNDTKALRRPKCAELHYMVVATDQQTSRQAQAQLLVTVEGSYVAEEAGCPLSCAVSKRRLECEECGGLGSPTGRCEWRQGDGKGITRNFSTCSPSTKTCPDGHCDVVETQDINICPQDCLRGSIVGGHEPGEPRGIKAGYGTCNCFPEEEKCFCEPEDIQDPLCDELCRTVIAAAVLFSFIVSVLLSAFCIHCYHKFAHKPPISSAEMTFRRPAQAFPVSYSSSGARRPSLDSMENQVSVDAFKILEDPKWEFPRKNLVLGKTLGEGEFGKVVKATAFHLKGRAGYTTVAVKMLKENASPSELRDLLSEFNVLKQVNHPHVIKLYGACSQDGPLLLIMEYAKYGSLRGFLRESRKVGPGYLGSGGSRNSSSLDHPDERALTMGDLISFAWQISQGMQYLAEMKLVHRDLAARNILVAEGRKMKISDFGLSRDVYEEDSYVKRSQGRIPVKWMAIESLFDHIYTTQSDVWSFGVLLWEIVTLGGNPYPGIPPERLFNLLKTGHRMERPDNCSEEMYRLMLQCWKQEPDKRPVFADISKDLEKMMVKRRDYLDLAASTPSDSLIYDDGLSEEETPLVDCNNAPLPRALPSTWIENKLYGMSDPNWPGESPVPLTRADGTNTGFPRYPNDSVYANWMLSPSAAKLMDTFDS

Like-named read-outs stand apart in the source and are kept apart here.

One may read the inhibition as the change of the read-out against control, counted positive when it falls.

With `N#Cc1cc(-c2ncnc(Nc3ccc(N4CCN(C5COC5)CC4)cc3)n2)ccc1OC1CCOCC1` [Compound 1, 5-(4-((4-(4-(oxetan-3-yl)piperazin-1-yl)phenyl)amino)-1,3,5-triazin-2-yl)-2-((tetrahydro-2H-pyran-4-yl)oxy)benzonitrile], the “response to combination treatment in vivo, MB49 bladder carcinoma model” value in the experiment with MB49 allograft is reported as “enhanced response”. Moreover, the inhibition was 4% at off-target kinases [1] (read-out: % Inhibition 1); -2% at off-target kinases [1] (read-out: % Inhibition 2); 1% at off-target kinases [1] (read-out: % Inhibition Avg); 18% at off-target kinases [2] (read-out: % Inhibition 1); 21% on off-target kinases [2] (read-out: % Inhibition 2); 20% on off-target kinases [2] (read-out: % Inhibition Avg). The inhibition on off-target kinases [3] (read-out: % Inhibition 1) worked out at 14%; at off-target kinases [3] (read-out: % Inhibition 2), 9%; on off-target kinases [3] (read-out: % Inhibition Avg), 11%; at off-target kinases [4] (read-out: % Inhibition 1), 35%; at off-target kinases [4] (read-out: % Inhibition 2), 31%; on off-target kinases [4] (read-out: % Inhibition Avg) it was 33%.
